This is an account of results in ChEMBL document CHEMBL5465560, “Selectivity Literature for EUbOPEN Chemogenomic Library” (2024).

The target of test [1] is 5-hydroxytryptamine receptor 1B (Homo sapiens) (UniProt P28222). In words: Selectivity interaction (Panel of kinases, GPCRs, ion channels and transporters (enzymatic assay)) EUB0000266bCl HTR1B.
Test [2] concerns the target Serine/threonine-protein kinase tousled-like 2 (Homo sapiens) (UniProt Q86UE8). Put plainly: Selectivity interaction (ProQinase) EUB0000171b TLK2.
Test [3] has as its target Protein kinase C delta type (Homo sapiens) (UniProt Q05655). In words: Selectivity interaction (Ambit KINOMEscan and KiNATiv profiling in Jurkat cells) EUB0000090b PRKCD. It counts as cell-based. Conditions: at 1 µM.
The target in test [4] is Mitogen-activated protein kinase 14 (Homo sapiens, UniProt Q16539). Put plainly: Selectivity interaction (Radiometric kinase assay (using 10 uM ATP)) EUB0000601a MAPK14.
Mitogen-activated protein kinase 14, sequence (Q16539 whole entry): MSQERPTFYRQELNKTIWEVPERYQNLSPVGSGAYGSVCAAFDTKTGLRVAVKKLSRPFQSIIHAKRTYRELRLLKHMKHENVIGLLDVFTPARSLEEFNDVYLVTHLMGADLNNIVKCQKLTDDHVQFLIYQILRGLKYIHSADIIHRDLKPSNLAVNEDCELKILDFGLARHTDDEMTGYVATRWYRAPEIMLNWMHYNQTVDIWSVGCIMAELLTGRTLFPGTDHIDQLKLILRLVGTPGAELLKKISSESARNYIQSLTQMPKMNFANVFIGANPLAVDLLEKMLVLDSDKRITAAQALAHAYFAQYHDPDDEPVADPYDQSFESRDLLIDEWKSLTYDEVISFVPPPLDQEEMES
Test [5] deals with Ribosomal protein S6 kinase alpha-6 (Homo sapiens, UniProt Q9UK32). Put plainly: Selectivity interaction (KinomeScan (DiscoverX)) EUB0001079a RPS6KA6. The settings on record: at 1 µM.
Ribosomal protein S6 kinase alpha-6, sequence (Q9UK32 whole entry): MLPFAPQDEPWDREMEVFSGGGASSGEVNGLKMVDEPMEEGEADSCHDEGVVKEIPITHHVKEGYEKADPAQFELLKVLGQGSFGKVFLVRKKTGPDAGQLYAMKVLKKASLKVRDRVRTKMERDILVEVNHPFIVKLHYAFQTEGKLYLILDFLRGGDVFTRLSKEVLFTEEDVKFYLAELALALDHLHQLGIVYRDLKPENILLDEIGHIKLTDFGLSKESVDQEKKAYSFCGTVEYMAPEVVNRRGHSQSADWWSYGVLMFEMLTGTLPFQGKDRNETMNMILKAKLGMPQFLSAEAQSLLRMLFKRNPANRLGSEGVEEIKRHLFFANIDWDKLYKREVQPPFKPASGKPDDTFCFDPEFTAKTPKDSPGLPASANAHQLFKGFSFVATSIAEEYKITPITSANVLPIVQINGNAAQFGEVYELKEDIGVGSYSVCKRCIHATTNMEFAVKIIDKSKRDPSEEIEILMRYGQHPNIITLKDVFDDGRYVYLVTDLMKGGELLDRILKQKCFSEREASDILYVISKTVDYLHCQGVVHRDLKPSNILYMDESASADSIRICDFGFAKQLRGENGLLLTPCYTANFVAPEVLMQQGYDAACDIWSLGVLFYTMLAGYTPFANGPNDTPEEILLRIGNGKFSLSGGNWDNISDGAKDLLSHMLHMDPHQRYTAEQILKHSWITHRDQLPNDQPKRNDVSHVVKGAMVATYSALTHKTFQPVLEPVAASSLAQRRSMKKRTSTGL
The target in test [6] is T1, Cyclin-dependent kinase-like 2 (Homo sapiens) (UniProt Q92772).
T1 sequence (whole entry): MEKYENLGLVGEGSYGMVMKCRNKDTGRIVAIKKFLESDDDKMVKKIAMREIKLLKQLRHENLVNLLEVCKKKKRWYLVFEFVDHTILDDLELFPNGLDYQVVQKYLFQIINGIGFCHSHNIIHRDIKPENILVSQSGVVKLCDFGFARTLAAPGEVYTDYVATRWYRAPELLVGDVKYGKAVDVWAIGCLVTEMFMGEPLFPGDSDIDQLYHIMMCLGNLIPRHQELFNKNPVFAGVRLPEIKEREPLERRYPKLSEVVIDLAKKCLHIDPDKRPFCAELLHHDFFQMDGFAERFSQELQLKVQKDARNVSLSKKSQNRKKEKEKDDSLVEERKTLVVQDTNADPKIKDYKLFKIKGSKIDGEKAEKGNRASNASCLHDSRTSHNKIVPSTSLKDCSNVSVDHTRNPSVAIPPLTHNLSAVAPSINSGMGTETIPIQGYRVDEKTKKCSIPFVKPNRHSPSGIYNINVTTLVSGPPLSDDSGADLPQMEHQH
Put plainly: Selectivity interaction (KinomeScan (DiscoverX)) EUB0000092b CDKL2. The settings on record: at 10 µM.

In test [7] the target is Mitogen-activated protein kinase 6 (Homo sapiens) (UniProt Q16659). Put plainly: Selectivity interaction (KinomeScan (DiscoverX)) EUB0001049a MAPK6. The settings on record: at 1 µM.
Mitogen-activated protein kinase 6 (Homo sapiens), sequence (Q16659 whole entry, canonical isoform): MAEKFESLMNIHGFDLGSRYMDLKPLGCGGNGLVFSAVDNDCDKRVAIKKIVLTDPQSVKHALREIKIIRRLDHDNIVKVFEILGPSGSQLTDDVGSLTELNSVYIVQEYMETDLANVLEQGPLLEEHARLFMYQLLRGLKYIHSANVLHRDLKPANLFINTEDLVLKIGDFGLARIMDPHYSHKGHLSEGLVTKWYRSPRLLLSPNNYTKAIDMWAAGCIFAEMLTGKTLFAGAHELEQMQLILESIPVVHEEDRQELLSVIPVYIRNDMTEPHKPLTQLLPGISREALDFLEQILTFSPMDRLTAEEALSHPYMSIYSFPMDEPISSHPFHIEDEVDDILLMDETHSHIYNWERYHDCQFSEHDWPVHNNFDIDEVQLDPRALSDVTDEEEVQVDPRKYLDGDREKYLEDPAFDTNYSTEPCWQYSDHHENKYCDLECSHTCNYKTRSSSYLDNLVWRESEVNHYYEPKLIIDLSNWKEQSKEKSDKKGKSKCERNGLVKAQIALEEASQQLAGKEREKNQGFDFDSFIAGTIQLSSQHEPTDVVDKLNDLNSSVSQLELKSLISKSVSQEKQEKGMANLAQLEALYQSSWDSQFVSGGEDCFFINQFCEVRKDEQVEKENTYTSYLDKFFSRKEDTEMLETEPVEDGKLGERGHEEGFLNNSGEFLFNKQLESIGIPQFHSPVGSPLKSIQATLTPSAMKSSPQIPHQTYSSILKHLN
The target of test [8] is T2, Casein kinase I isoform alpha-like (Homo sapiens) (UniProt Q8N752).
T2 sequence (whole entry): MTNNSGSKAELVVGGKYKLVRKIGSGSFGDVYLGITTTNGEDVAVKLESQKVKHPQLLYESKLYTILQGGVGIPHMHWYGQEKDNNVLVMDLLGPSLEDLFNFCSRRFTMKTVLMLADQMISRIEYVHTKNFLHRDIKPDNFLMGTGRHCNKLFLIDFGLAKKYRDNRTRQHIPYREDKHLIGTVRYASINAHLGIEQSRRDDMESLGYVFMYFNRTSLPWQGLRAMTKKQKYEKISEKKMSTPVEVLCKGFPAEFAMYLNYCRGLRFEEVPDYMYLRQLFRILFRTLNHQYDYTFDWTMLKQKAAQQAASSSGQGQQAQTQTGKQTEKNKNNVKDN
In words: Selectivity interaction (KinomeScan (DiscoverX)) EUB0000655a CSNK1A1L. Conditions: at 10 µM.

Test [9] deals with T3, Dual specificity mitogen-activated protein kinase kinase 5 (Homo sapiens) (UniProt Q13163).
T3 sequence (whole entry): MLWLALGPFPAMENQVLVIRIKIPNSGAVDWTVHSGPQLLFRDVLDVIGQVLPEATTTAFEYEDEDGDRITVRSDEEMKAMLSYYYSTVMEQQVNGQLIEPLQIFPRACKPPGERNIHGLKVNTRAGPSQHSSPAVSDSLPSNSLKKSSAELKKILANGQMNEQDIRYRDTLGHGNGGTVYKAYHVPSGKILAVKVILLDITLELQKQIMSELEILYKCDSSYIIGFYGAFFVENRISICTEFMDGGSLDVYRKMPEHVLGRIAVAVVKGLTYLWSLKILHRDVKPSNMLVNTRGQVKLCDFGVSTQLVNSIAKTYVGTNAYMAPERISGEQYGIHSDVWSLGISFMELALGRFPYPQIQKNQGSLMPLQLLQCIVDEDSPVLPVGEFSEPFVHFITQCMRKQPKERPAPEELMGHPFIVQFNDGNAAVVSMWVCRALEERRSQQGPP
In words: Selectivity interaction (KinomeScan (DiscoverX)) EUB0000655a MAP2K5. Conditions: at 10 µM.

The target in test [10] is Protein polybromo-1 (Homo sapiens) (UniProt Q86U86). In words: Selectivity interaction (Bromodomain panel (DSF asssay)) EUB0000270b PBRM1.
Test [11] has as its target T4, Serine/threonine-protein kinase D2 (Homo sapiens) (UniProt Q9BZL6).
T4 sequence (whole entry): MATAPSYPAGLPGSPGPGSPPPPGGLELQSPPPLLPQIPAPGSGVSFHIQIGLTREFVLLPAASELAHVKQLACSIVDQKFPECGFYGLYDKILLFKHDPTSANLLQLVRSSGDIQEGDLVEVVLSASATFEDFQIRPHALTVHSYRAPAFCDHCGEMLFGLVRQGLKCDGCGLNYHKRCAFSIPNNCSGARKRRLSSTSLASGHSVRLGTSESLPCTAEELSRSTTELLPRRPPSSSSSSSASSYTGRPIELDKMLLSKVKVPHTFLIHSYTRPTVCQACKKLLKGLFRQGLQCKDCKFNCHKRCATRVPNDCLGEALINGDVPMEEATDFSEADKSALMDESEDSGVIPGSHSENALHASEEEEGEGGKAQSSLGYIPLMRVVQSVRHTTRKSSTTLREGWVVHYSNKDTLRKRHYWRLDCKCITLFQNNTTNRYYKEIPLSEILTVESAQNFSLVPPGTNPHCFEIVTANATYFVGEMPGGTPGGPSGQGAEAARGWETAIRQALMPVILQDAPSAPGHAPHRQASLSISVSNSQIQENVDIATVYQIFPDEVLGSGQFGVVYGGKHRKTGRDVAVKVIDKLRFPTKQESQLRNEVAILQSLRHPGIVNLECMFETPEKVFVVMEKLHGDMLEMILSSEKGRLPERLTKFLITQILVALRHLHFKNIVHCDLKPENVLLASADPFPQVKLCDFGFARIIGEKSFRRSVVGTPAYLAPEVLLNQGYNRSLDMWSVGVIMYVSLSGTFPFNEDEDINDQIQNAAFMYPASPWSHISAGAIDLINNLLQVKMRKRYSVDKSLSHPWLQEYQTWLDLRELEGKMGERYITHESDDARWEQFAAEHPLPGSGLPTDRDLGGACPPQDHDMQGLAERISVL
In words: Selectivity interaction (ActivX KiNativ screen (kinase selectivity in THP-1 cell lysates)) EUB0000639a PRKD2. It counts as subcellular. The settings on record: lysate, at 0.04 µM.

Test [12] deals with Platelet-derived growth factor receptor alpha (Homo sapiens, UniProt P16234). Put plainly: Selectivity interaction (KinomeScan (DiscoverX)) EUB0000618a PDGFRA. The settings on record: at 10 µM.
Platelet-derived growth factor receptor alpha, sequence (P16234 whole entry): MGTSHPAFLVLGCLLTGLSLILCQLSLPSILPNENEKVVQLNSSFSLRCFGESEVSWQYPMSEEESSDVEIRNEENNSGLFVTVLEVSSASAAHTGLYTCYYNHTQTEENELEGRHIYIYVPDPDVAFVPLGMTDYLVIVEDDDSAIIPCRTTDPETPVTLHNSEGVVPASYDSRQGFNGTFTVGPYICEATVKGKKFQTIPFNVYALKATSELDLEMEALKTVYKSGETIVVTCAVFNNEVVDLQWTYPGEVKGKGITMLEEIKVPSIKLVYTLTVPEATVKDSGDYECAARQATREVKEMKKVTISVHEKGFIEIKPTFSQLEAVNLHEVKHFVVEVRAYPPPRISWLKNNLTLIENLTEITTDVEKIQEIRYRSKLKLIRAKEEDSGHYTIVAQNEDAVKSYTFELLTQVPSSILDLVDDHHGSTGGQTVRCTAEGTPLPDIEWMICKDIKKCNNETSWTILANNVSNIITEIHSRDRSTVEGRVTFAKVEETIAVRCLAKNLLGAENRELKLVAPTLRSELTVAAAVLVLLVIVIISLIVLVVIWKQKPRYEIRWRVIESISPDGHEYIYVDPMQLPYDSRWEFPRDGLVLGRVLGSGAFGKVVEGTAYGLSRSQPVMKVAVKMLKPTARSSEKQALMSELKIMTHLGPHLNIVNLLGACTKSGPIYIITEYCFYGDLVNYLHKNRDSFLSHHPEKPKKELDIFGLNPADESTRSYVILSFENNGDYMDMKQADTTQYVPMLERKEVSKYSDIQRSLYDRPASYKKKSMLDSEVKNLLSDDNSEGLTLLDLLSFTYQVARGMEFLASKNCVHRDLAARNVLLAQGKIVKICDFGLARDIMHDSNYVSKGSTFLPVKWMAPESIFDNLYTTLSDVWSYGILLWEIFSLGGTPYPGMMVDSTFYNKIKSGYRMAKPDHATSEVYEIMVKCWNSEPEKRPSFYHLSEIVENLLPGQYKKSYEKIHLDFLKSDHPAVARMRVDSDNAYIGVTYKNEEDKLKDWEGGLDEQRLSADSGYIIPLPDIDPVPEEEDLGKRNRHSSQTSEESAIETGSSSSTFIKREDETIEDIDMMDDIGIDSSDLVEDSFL

Bounds are passed on as bounds.

Serine/threonine-protein kinase tousled-like 2 (Homo sapiens), sequence (Q86UE8 whole entry, looked up): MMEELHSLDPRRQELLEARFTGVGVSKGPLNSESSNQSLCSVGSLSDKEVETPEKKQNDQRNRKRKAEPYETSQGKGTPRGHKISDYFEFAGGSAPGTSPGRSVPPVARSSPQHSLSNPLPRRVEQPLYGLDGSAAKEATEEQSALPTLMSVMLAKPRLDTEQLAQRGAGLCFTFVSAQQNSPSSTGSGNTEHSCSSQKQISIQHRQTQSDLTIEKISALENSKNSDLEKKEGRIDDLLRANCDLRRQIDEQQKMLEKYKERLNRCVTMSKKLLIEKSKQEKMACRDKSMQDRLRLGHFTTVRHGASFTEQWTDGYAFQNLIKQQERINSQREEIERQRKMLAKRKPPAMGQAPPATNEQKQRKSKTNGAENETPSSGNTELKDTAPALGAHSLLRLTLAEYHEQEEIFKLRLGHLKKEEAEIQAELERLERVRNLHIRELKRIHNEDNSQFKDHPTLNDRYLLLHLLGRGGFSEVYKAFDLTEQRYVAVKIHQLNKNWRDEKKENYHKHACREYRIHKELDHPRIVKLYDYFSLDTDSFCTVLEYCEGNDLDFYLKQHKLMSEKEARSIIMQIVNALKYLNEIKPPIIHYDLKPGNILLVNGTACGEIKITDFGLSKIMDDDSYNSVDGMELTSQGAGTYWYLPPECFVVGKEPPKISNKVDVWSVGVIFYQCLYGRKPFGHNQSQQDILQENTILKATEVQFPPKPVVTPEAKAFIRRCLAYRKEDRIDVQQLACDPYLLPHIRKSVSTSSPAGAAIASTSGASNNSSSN
Protein kinase C delta type (Homo sapiens), sequence (Q05655 whole entry, looked up): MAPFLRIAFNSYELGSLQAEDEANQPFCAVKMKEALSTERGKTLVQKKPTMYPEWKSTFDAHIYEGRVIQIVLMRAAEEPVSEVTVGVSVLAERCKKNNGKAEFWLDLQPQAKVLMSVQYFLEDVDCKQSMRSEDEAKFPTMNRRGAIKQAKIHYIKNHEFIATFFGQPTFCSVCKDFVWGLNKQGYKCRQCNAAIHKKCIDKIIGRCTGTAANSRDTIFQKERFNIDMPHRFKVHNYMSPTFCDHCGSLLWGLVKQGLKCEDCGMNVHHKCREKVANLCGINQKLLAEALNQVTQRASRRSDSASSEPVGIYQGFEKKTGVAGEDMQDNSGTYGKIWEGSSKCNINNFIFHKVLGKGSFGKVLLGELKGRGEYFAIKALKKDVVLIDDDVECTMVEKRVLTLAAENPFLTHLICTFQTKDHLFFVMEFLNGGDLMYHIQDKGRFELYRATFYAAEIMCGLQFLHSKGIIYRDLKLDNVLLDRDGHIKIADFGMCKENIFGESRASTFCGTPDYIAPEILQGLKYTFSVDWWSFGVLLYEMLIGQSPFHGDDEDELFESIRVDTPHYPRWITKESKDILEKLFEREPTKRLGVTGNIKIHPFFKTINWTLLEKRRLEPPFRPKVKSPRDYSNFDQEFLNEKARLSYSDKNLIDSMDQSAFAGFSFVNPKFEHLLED
5-hydroxytryptamine receptor 1B (Homo sapiens), sequence (P28222 whole entry): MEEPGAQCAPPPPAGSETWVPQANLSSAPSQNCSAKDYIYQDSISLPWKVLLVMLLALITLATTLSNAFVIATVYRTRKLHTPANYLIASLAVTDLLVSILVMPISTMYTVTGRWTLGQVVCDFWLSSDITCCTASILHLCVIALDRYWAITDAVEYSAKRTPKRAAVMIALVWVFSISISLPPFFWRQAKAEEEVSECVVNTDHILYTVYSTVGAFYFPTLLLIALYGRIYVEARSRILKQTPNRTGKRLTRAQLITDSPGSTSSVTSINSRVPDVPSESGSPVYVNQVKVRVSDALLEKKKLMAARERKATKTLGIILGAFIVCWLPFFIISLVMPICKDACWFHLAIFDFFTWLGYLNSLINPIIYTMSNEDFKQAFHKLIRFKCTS

As for `CCn1c(-c2nc3cc(C(=O)N4CCCC(N)C4)ccc3n2C)cc2ccccc21` (stereo not drawn), the pXC50 in test [1] was less than 4.5 M. As to `C=CC(=O)Nc1cccc(C(=O)Nc2ccc(Nc3cc(-c4[nH]c(SC)nc4C)ccn3)cc2)c1`, the results for the % of control in test [2] (at 1 µM) and in test [2] (at 5 µM) were 92% and 83%, respectively. In the case of `CN(C)C/C=C/C(=O)Nc1ccc(C(=O)N2CCCC(Nc3ncc(Cl)c(-c4c[nH]c5ccccc45)n3)C2)cc1` (stereo not drawn), in [3], the % of control came to 75%.

The term IC50 denotes the midpoint of a concentration-inhibition curve. Read a high IC50 as weaker potency in that assay. `CCc1cc(Nc2nccc(-c3c(-c4ccc(OC)c(C(=O)Nc5c(F)cccc5F)c4)nc4ccccn34)n2)c(OC)cc1N1CCC(N2CCN(S(C)(=O)=O)CC2)CC1` registered an IC50 in [4] greater than 11 µM.

Turning to `Nc1cnc(N2CCc3cc(S(=O)(=O)Nc4c(F)cc(Cl)cc4F)cc(N4CCCC4=O)c32)nc1` [TP-020n], in test [5], the % of control came to 100%.

In turn, `CCC(=O)N1CCN(c2ccc(-n3c(=O)ccc4cnc5ccc(-c6cnc7ccccc7c6)cc5c43)cc2C(F)(F)F)CC1` returned a % of control in test [6] of 58%. Turning to `COc1cc(Nc2nc(C)cc(-c3cnn4nc(OC)ccc34)n2)cc(C(F)(F)F)c1`, the % of control in [7] is 92%. As to `CN(C)CCOc1ccc(-c2nc(-c3ccncc3)c(-c3ccc4c(c3)CC/C4=N\O)[nH]2)cc1`, the % of control was 88% in [8] and 22% in [9].

`Cc1cc(CN)cc(C)c1-c1ncn(C)c1-c1cncn1C` yielded a dTM in test [10] of -1.91 K. As for `CC[C@@H]1[C@H](F)C(=O)N[C@@H]1COc1nccc2cc(C(N)=O)c(OC)cc12` [ZIMLOVISERTIB], in test [11], the % of inhibition is -3.5%. With `O[C@H]1CC[C@H](Nc2ncc3nc(Nc4c(F)cc(F)cc4F)n([C@H]4CCOC4)c3n2)CC1`, the % of control in [12] is 82%.
